Columns and labels:
CRT [1] = test: Biotinylation of cell surface proteins, 2D gel electrophoresis and mass spectrometry: CRT; assay type: cell-based, mouse; conditions: 4 h treatment, vs untreated cells
Method: Biotinylation and recovery of cell surface proteins were performed with a method adopted from Gottardi et al. (Gottardi, C. J. et al., “Biotinylation and assessment of membrane polarity: caveats and methodological concerns,” Am J Physiol 268, F285-295 (1995)) and Hanwell et al. (Hanwell, D. et al., “Trafficking and cell surface stability of the epithelial Na+ channel expressed in epithelial Madin-Darby canine kidney cells,” J Biol Chem 277, 9772-9779 (2002)). Briefly, 20×10^6 CT26 cells grown on 75 cm^2 flask were placed on ice and washed three times with ice-cold PBS-Ca^2+—Mg^2+ (PBS with 0.1 mM CaCl2 and 1 mM MgCl2). Membrane proteins were then biotinylated by a 30-minute incubation at 4° C. with NHS-SS-biotin 1.25 mg/ml freshly diluted into biotinylation buffer (10 mM triethanolamine, 2 mM CaCl2, 150 mM NaCl, pH 7.5) with gentle agitation. CT26 cells were rinsed with PBS-Ca^2+—Mg^2++glycine (100 mM) and washed in this buffer for 20 minutes at 4° C. to quench unreacted biotin. The cells were then rinsed twice with PBS-Ca^2+—Mg^2+, scraped in cold PBS, and pelleted at 2,000 rpm at 4° C. The pellets were solubilized for 45 min in […] of lysis buffer (1% Triton X-100, 150 mM NaCl, 5 mM EDTA, 50 mM Tris, pH 7.5) containing protease inhibitors. […]

CT26 tumor cells = test: Anti-tumor vaccination: treated dying CT26 cells injected s.c., challenge with live tumor cells in opposite flank; assay type: in vivo, BALB/c mice; conditions: CT26 cells treated in vitro with agent alone, immunocompetent BALB/c mice
CT26 cells = test: Phagocytosis assay: uptake of treated tumor cells by dendritic cells; assay type: cell-based, mouse; conditions: before apoptotic changes
Method: BM cells were flushed from the tibias and femurs of BALB/c mice with culture medium composed of RPMA 1640 medium supplemented with 10% heat-inactivated FBS, sodium pyruvate, […] 2-ME. 10 mM HEPES (pH 7.4), and penicillin/streptomycin. After one centrifugation, BM cells were resuspended in Tris-ammonium chloride for 2 min to lyse RBC. After one more centrifugation, BM cells (1×10^6 cells/ml) were cultured in medium supplemented with 100 ng/ml recombinant mouse FLT3 ligand in 6-well plates. […] In 12-well plates, […] adherent CT26 cells were labeled with Celltracker Orange and then incubated with drugs. […] Alternatively CT26 cells were coated with 3 μg/10^6 cells of rCRT on ice for 30 minutes and washed twice prior to addition to dendritic cells. Cells were then harvested, washed three times with medium supplemented with FBS and cocultured with immature DC for 2 hours at a ratio of 1:1 and 1:5. At the end of the incubation, cells were harvested with Versene, pooled with non-adherent cells present in the supernatant, washed and stained with CD11c-FITC antibody. Phagocytosis was assessed by FACS analysis of double positive cells. Phagocytic indexes refer to the ratio between values obtained at […] of co-incubation between DC and tumor cells. Trypsinized CT26 cells were enucleated as described. Briefly, cells were treated in 2 ml of complete RPMI medium containing cytochalasin B (10 μg/ml; Sigma) and DNase I (80 U/ml; Sigma). Cell suspension was adjusted to a final concentration of 5×10^6/ml and incubated at 37° C. for 45 minutes before being layered onto a previously prepared discontinuous Ficoll density gradient (3 ml of 100%, in 1 ml of 90% and 3 ml of 55% Ficoll Paque layer containing 5 μg/ml cytochalasin B and 40 U/ml DNase I; gradients were prepared in ultracentrifuge tubes and pre-equilibrated at 37° C. in a CO2 incubator overnight). Gradients containing cell suspensions were centrifugated in a prewarmed SW41 Beckman rotor at 25 000 rpm for 20 minutes at 30° C. The cytoplasts-enriched fraction was collected from the interface between 90 and 100% Ficoll layers, washed in complete RPMI 1640 medium, and incubated at 37° C. The cells were incubated with mitoxantrone (MTX), calyculin (CA), salubrinal (Sal) and toutomycin (TA) for the period of time indicated in the experiment. […] Alternatively cythoplasts were cocultured with immature DC for 2 hours at a ratio of 1:1 and 1:5. At the end of the incubation, cells were harvested with versene, pooled with non-adherent cells present in the supernatant, washed and stained with CD11c-FITC antibody. Phagocytosis was assessed by FACS analysis of double positive cells.

ERP57 = test: Biotinylation of cell surface proteins, 2D gel electrophoresis and mass spectrometry: ERP57; assay type: cell-based, mouse; conditions: 4 h treatment, vs untreated cells
Method: Biotinylation and recovery of cell surface proteins were performed with a method adopted from Gottardi et al. (Gottardi, C. J. et al., “Biotinylation and assessment of membrane polarity: caveats and methodological concerns,” Am J Physiol 268, F285-295 (1995)) and Hanwell et al. (Hanwell, D. et al., “Trafficking and cell surface stability of the epithelial Na+ channel expressed in epithelial Madin-Darby canine kidney cells,” J Biol Chem 277, 9772-9779 (2002)). Briefly, 20×10^6 CT26 cells grown on 75 cm^2 flask were placed on ice and washed three times with ice-cold PBS-Ca^2+—Mg^2+ (PBS with 0.1 mM CaCl2 and 1 mM MgCl2). Membrane proteins were then biotinylated by a 30-minute incubation at 4° C. with NHS-SS-biotin 1.25 mg/ml freshly diluted into biotinylation buffer (10 mM triethanolamine, 2 mM CaCl2, 150 mM NaCl, pH 7.5) with gentle agitation. CT26 cells were rinsed with PBS-Ca^2+—Mg^2++glycine (100 mM) and washed in this buffer for 20 minutes at 4° C. to quench unreacted biotin. The cells were then rinsed twice with PBS-Ca^2+—Mg^2+, scraped in cold PBS, and pelleted at 2,000 rpm at 4° C. The pellets were solubilized for 45 min in […] of lysis buffer (1% Triton X-100, 150 mM NaCl, 5 mM EDTA, 50 mM Tris, pH 7.5) containing protease inhibitors. The lysates were clarified by centrifugation at 14,000×g for 10 min at 4° C., and the supernatants were incubated overnight with packed streptavidin-agarose beads to recover biotinylated proteins. The beads were then pelleted by centrifugation, and aliquots of supernatants were taken to represent the unbound, intracellular pool of proteins. Biotinylated proteins were eluted from the beads by heating to 100° C. for 5 minutes in SDS-PAGE sample buffer before loading onto a 10% SDS-PAGE gel as described above. To ensure the absence of leakage of biotin into the cells, the absence of the intracellular protein actin and GAPDH in biotinylated extracts was systematically verified.
Purified proteins were precipitated using the Ettan 2-D clean up kit were subsequently resuspended in urea buffer (7M urea, 2M thiourea, 2% Chaps, 1% Sulfobetaine SB3-10, 1% Amidosulfobetaine ASB14, 50 mM DTT). For the first dimension of protein separation, isoelectric focusing (IEF) was performed using 18-cm immobilized nonlinear pH gradient strips (pH 3 to 10; GE Healthcare) on a electrophoresis unit. […]

CRT [2] = test: Fluorescence detection of cell surface CRT (cytofluorometry); conditions: intact cells
Method: CT26 cells (on a glass slide or in 12-well plates) were first washed with FACS buffer (1×PBS, 5% fetus bovine serum, and 0.1% sodium azide) and then incubated with rabbit anti-mouse CRT antibody (1:100, Stressgen), or rabbit anti-mouse ERP57 antibody (abcam) in FACS buffer at 4° C. for 30 min. […] After washing three times with FACS buffer, surface CRT and ERP57 was detected by cytofluorometric analysis on a FACS Vantage. In some experiments, cells were fixed with 4% paraformaldehyde, counterstained with Hoechst (2 μM; Sigma), followed by fluorescence microscopic assessment.
Trypsinized CT26 cells were enucleated as described. Briefly, cells were treated in 2 ml of complete RPMI medium containing cytochalasin B (10 μg/ml; Sigma) and DNase I (80 U/ml; Sigma). […] Gradients containing cell suspensions were centrifugated in a prewarmed SW41 Beckman rotor at 25 000 rpm for 20 minutes at 30° C. […] Then the cell surface CRT was detected (see materials and methods) and the viability was determined by with propidium iodine staining (2 μg/ml, Sigma) for 5 min followed by cytofluorometric analysis.

For `COc1cccc2c1C(=O)c1c(O)c3c(c(O)c1C2=O)C[C@@](O)(C(=O)CO)C[C@@H]3O[C@H]1C[C@H](N)[C@H](O)[C@H](C)O1` [doxorubicin], the “induction of surface CRT, factor” value (CRT [1]) was 6, the “immunogenicity of cell death (protection against tumor growth on rechallenge)” value (CT26 tumor cells) was “elicited immunogenic cell death” and the “time after treatment at which tumor cells are phagocytosed by DC” value (CT26 cells) was “within a few hours after treatment”. The “induction of surface ERP57 spot 1, factor” value (ERP57) was 4.1, the “induction of surface ERP57 spot 2, factor” value (ERP57) was 3.4 and the “induction of surface ERP57 spot 3, factor” value (ERP57) was 8. The “induction of surface ERP57 spot 4, factor” value (ERP57) was 8.1 and the “time after treatment at which CRT exposure is detectable” value (CRT [2]) was 1 h.

Source: US20090004211A1, “METHOD FOR EFFECTING LOCALIZED, NON-SYSTEMIC AND SYSTEMIC, IMMUNOGENIC TREATMENT OF CANCER USING ERP57 TRANSLOCATION” (priority 2006, published 2009)
